# Key:
# Type in all cases: binding
# Linker-NEAT1 [1] = target: T1, Linker-NEAT1 (Streptococcus pyogenes, UniProt Q99YA0); test: isothermal titration calorimetry; conditions: PBS pH 7.4, 5% DMSO, 25 °C; one set of sites
# T1 construct: gene shr; linker + NEAT1 domain, Ser294-Gly502 of 1275-residue Shr; E. coli BL21(DE3)
# NEAT2 [2] = target: T2, NEAT2 (Streptococcus pyogenes, UniProt Q99YA0); test: isothermal titration calorimetry; conditions: PBS pH 7.4, 5% DMSO, 25 °C; one set of sites
# T2 construct: gene shr; NEAT2 domain, Ala970-Thr1129 of 1275-residue Shr; E. coli BL21(DE3)
# Linker-NEAT1 [3] = target: T1, Linker-NEAT1; test: differential scanning calorimetry; conditions: PBS; 1 mg/ml protein
# NEAT2 [4] = target: T2, NEAT2; test: differential scanning calorimetry; conditions: PBS; 1 mg/ml protein
# Shp = target: T3, Shp (Streptococcus pyogenes, UniProt Q06A48); test: isothermal titration calorimetry; conditions: PBS pH 7.4, 5% DMSO, 25 °C; one set of sites
# T3 construct: E. coli BL21(DE3)
# T3 sequence (Q06A48 entry or part of it): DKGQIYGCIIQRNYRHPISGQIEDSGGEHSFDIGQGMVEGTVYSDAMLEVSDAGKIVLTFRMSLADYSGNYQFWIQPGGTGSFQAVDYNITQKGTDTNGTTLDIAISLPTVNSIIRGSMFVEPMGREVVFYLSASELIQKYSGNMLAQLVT
# T1 sequence (Q99YA0 294-502): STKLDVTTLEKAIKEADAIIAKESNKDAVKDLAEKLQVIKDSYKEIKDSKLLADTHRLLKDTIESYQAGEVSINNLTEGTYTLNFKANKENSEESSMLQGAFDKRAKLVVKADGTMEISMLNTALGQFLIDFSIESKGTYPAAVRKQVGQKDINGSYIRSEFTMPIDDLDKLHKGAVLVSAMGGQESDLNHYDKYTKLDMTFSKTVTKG
# T2 sequence (Q99YA0 970-1129): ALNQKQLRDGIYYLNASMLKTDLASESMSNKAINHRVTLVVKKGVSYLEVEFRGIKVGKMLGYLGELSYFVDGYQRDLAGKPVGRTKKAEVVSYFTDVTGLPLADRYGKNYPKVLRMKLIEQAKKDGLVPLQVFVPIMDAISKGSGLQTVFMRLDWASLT
substance,measurement,setting,value
heme,Kd,Linker-NEAT1 [1],32 ± 23.4 nM
same,Kd,NEAT2 [2],12.7 ± 10.3 nM
same,Tm with heme (apo 34.6 °C),Linker-NEAT1 [3],41.1 °C
same,Tm with heme (apo 58.1 °C),NEAT2 [4],64.0 °C
same,Kd,Shp,< 0.81 nM

# — paper PMC12796733 (The Journal of Biological Chemistry, 2025)
